Source: ChEMBL document CHEMBL1139487, “Discovery of corticotropin releasing factor 2 receptor selective sauvagine analogues for treatment of skeletal muscle atrophy” (J Med Chem, 2005)
pEC50: −log10 of the molar value.

What was measured:
[1] = molecular target: T1, Corticotropin-releasing factor receptor 1 (Mus musculus, UniProt P35347); assay: In vitro effective concentration for mouse corticotropin releasing factor 1 receptor
T1 sequence (P35347 whole entry): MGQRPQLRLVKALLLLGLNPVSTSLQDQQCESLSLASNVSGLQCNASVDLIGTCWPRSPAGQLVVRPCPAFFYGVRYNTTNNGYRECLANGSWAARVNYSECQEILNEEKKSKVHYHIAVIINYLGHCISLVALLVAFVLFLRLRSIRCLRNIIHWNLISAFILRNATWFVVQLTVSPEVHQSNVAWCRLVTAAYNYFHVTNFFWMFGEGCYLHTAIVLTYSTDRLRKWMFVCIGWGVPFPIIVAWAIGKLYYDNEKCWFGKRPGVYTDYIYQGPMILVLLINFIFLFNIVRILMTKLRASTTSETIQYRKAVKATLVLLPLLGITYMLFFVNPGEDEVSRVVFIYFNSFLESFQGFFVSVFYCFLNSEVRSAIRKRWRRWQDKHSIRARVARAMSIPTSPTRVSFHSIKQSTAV

[2] = molecular target: Corticotropin-releasing factor receptor 2 (Mus musculus, UniProt Q60748); assay: In vitro effective concentration for mouse corticotropin releasing factor 2 receptor
[3] = molecular target: T2, Corticotropin-releasing factor receptor 1 (Mus musculus) (UniProt P35347); assay: In vitro agonistic activity against mouse corticotropin releasing factor 1 receptor; format: functional
T2 sequence (whole entry): T1 sequence (P35347 whole entry)

[4] = molecular target: Corticotropin-releasing factor receptor 2 (Mus musculus) (UniProt Q60748); assay: In vitro agonistic activity against mouse corticotropin releasing factor 2 receptor; format: functional
Corticotropin-releasing factor receptor 2 (Mus musculus), sequence (Q60748 whole entry): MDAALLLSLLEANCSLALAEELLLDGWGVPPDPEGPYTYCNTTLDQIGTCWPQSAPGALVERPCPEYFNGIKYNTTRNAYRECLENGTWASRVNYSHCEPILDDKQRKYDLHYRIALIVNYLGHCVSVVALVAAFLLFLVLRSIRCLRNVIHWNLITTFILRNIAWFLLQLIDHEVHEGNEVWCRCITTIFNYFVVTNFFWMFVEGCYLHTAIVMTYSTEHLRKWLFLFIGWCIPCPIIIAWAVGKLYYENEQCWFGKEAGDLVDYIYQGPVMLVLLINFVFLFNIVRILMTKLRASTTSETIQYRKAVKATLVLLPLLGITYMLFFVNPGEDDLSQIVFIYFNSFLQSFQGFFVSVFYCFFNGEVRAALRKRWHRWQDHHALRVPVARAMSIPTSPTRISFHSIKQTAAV

Corticotropin-releasing factor receptor 2, sequence (Q60748 whole entry): as above

Compound	pEC50 [1]	pEC50 [2]	Emax [3]	Emax [4]
CC[C@H](C)[C@H](NC(=O)[C@@H](NC(=O)[C@H](CC(=O)O)NC(=O)[C@H](CC(C)C)NC(=O)[C@H](CC(C)C)NC(=O)[C@H](CC(C)C)NC(=O)[C@H](CCCNC(=N)N)NC(=O)[C@H](CC(N)=O)NC(=O)[C@H](CC(N)=O)NC(=O)[C@H](C)NC(=O)[C@H](C)NC(=O)[C@H](CCC(N)=O)NC(=O)[C@H](CCC(N)=O)NC(=O)[C@H](CCCCN)NC(=O)[C@H](CCC(=O)O)NC(=O)[C@H](CCCCN)NC(=O)[C@H](CCC(=O)O)NC(=O)[C@H](CCC(N)=O)NC(=O)[C@H](CCCCN)NC(=O)[C@H](CCC(=O)O)NC(=O)[C@@H](NC(=O)[C@H](CCC(=O)O)NC(=O)[C@@H](NC(=O)[C@H](CCSC)NC(=O)[C@H](CCCCN)NC(=O)[C@H](CCCNC(=N)N)NC(=O)[C@H](CC(C)C)NC(=O)[C@H](CC(C)C)NC(=O)[C@H](CC(C)C)NC(=O)[C@H](CC(C)C)NC(=O)[C@@H]1CCCN1C(=O)[C@H](CC(C)C)NC(=O)[C@H](CC(=O)O)NC(=O)[C@@H](NC(=O)[C@H](CO)NC(=O)[C@@H](NC(=O)[C@@H]1CCCN1C(=O)[C@@H]1CCCN1C(=O)CNC(=O)[C@@H]1CCC(=O)N1)[C@@H](C)CC)[C@@H](C)CC)[C@@H](C)CC)[C@@H](C)CC)[C@@H](C)O)C(=O)O	6.79	8.13	–	–
H-IVLSLDVPIGLLQILLEQARARAAREQATTNARILARV-OH	–	–	8%	96%
CC[C@H](C)[C@H](NC(=O)[C@@H](NC(=O)[C@H](CCC(=O)O)NC(=O)[C@H](CCSC)NC(=O)[C@H](CC(C)C)NC(=O)[C@H](CCCCN)NC(=O)[C@H](CCCNC(=N)N)NC(=O)[C@H](CC(N)=O)NC(=O)[C@H](CO)NC(=O)[C@H](Cc1c[nH]cn1)NC(=O)[C@H](C)NC(=O)[C@H](CCC(N)=O)NC(=O)[C@H](CCC(N)=O)NC(=O)[C@H](C)NC(=O)[C@H](CC(C)C)NC(=O)[C@H](CCC(N)=O)NC(=O)[C@H](CCC(=O)O)NC(=O)[C@H](C)NC(=O)[C@H](CCCNC(=N)N)NC(=O)[C@H](C)NC(=O)[C@H](CCSC)NC(=O)[C@H](CCC(=O)O)NC(=O)[C@H](CC(C)C)NC(=O)[C@@H](NC(=O)[C@H](CCC(=O)O)NC(=O)[C@H](CCCNC(=N)N)NC(=O)[C@H](CC(C)C)NC(=O)[C@H](CC(C)C)NC(=O)[C@H](Cc1c[nH]cn1)NC(=O)[C@H](Cc1ccccc1)NC(=O)[C@@H](NC(=O)[C@H](CC(C)C)NC(=O)[C@H](CC(=O)O)NC(=O)[C@H](CC(C)C)NC(=O)[C@H](CO)NC(=O)[C@@H](NC(=O)[C@@H]1CCCN1C(=O)[C@@H]1CCCN1C(=O)[C@H](CCC(=O)O)NC(=O)[C@H](CCC(=O)O)NC(=O)[C@@H](N)CO)[C@@H](C)CC)[C@@H](C)O)C(C)C)[C@@H](C)CC)C(N)=O [HUMAN CORTICOTROPIN RELEASING FACTOR]	7.70	–	–	–

The remaining lines, values ahead:

pEC50 [1]	pEC50 [2]	Emax [3]	Emax [4]	Compound
–	–	87%	82%	CC[C@H](C)[C@H](NC(=O)[C@@H](NC(=O)[C@H](CCC(=O)O)NC(=O)[C@H](CCSC)NC(=O)[C@H](CC(C)C)NC(=O)[C@H](CCCCN)NC(=O)[C@H](CCCN=C(N)N)NC(=O)[C@H](CC(N)=O)NC(=O)[C@H](CO)NC(=O)[C@H](Cc1c[nH]cn1)NC(=O)[C@H](C)NC(=O)[C@H](CCC(N)=O)NC(=O)[C@H](CCC(N)=O)NC(=O)[C@H](C)NC(=O)[C@H](CC(C)C)NC(=O)[C@H](CCC(N)=O)NC(=O)[C@H](CCC(=O)O)NC(=O)[C@H](C)NC(=O)[C@H](CCCN=C(N)N)NC(=O)[C@H](C)NC(=O)[C@H](CCSC)NC(=O)[C@H](CCC(=O)O)NC(=O)[C@H](CC(C)C)NC(=O)[C@@H](NC(=O)[C@H](CCC(=O)O)NC(=O)[C@H](CCCN=C(N)N)NC(=O)[C@H](CC(C)C)NC(=O)[C@H](CC(C)C)NC(=O)[C@H](Cc1c[nH]cn1)NC(=O)[C@H](Cc1ccccc1)NC(=O)[C@@H](NC(=O)[C@H](CC(C)C)NC(=O)[C@H](CC(=O)O)NC(=O)[C@H](CC(C)C)NC(=O)[C@H](CO)NC(=O)[C@@H](NC(=O)[C@@H]1CCCN1C(=O)[C@@H]1CCCN1C(=O)[C@H](CCC(=O)O)NC(=O)[C@H](CCC(=O)O)NC(=O)[C@@H](N)CO)[C@@H](C)CC)[C@@H](C)O)C(C)C)[C@@H](C)CC)C(=O)O
7.02	7.96	–	–	CC[C@H](C)[C@H](NC(=O)[C@@H](NC(=O)[C@H](CC(=O)O)NC(=O)[C@H](CC(C)C)NC(=O)[C@H](CC(C)C)NC(=O)[C@H](CC(C)C)NC(=O)[C@H](CCCNC(=N)N)NC(=O)[C@H](CC(N)=O)NC(=O)[C@H](CC(N)=O)NC(=O)[C@H](C)NC(=O)[C@H](C)NC(=O)[C@H](CCC(N)=O)NC(=O)[C@H](CCC(N)=O)NC(=O)[C@H](CCCCN)NC(=O)[C@H](CCC(=O)O)NC(=O)[C@H](CCCCN)NC(=O)[C@H](CCC(=O)O)NC(=O)[C@H](CCC(N)=O)NC(=O)[C@H](CCCCN)NC(=O)[C@H](CCC(=O)O)NC(=O)[C@@H](NC(=O)[C@H](CCC(=O)O)NC(=O)[C@@H](NC(=O)[C@H](CCSC)NC(=O)[C@H](CCCCN)NC(=O)[C@H](CCCNC(=N)N)NC(=O)[C@H](CC(C)C)NC(=O)[C@H](CC(C)C)NC(=O)[C@H](CCC(=O)O)NC(=O)[C@H](CC(C)C)NC(=O)[C@@H]1CCCN1C(=O)[C@H](CC(C)C)NC(=O)[C@H](CC(=O)O)NC(=O)[C@@H](NC(=O)[C@H](CO)NC(=O)[C@@H](NC(=O)[C@@H]1CCCN1C(=O)[C@@H]1CCCN1C(=O)CNC(=O)[C@@H]1CCC(=O)N1)[C@@H](C)CC)[C@@H](C)CC)[C@@H](C)CC)[C@@H](C)CC)[C@@H](C)O)C(=O)O
–	–	99%	95%	CC[C@H](C)[C@H](NC(=O)[C@@H](NC(=O)[C@H](CC(=O)O)NC(=O)[C@H](CC(C)C)NC(=O)[C@H](CC(C)C)NC(=O)[C@H](CC(C)C)NC(=O)[C@H](CCCN=C(N)N)NC(=O)[C@H](CC(N)=O)NC(=O)[C@H](CC(N)=O)NC(=O)[C@H](C)NC(=O)[C@H](C)NC(=O)[C@H](CCC(N)=O)NC(=O)[C@H](CCC(N)=O)NC(=O)[C@H](CCCCN)NC(=O)[C@H](CCC(=O)O)NC(=O)[C@H](CCCCN)NC(=O)[C@H](CCC(=O)O)NC(=O)[C@H](CCC(N)=O)NC(=O)[C@H](CCCCN)NC(=O)[C@H](CCC(=O)O)NC(=O)[C@@H](NC(=O)[C@H](CCC(=O)O)NC(=O)[C@@H](NC(=O)[C@H](CCSC)NC(=O)[C@H](CCCCN)NC(=O)[C@H](CCCN=C(N)N)NC(=O)[C@H](CC(C)C)NC(=O)[C@H](CC(C)C)NC(=O)[C@H](CCC(=O)O)NC(=O)[C@H](CC(C)C)NC(=O)[C@H](CO)NC(=O)[C@H](CC(C)C)NC(=O)[C@H](CC(=O)O)NC(=O)[C@@H](NC(=O)[C@H](CO)NC(=O)[C@@H](NC(=O)[C@@H]1CCCN1C(=O)[C@@H]1CCCN1C(=O)CNC(=O)[C@@H]1CCC(=O)N1)[C@@H](C)CC)[C@@H](C)CC)[C@@H](C)CC)[C@@H](C)CC)[C@@H](C)O)C(=O)O [SAUVAGINE]
